{"source": "patent US11780826B2", "about": "(Amgen Inc., priority 2017, dated 2023)"}
{"test_system": "Bovine cardiac myofibrils", "experiment": "In vitro model of dose-dependent myofibril ATPase modulation (AC1.4, pyruvate kinase/lactate dehydrogenase-coupled ATPase assay at pCa25)", "format": "biochemical", "settings": "concentration at which ATPase activity was 1.4-fold higher than the bottom of the dose curve, mean of a minimum of two independent tests", "in_short": "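Absorbance at 340 nm tracked ATP hydrolysis through pyruvate kinase/lactate dehydrogenase coupling (0.5 mM NADH, 1.5 mM PEP). Myofibrils from detergent-homogenized bovine heart, 1 mM ATP, pH 6.80, EGTA/CaCl2 buffering. Dose-response curves fitted with a four-parameter Hill equation.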", "units": {"AC1.4": "µM"}}
{"smiles": "N#CC1CN(S(=O)(=O)N2CCC[C@H](C(=O)N3CCC[C@@H]3C(=O)NCc3ccccc3)C2)C1", "note": "[Example 758, (R)—N-benzyl-1-((S)-1-((3-cyanoazetidin-1-yl)sulfonyl)piperidine-3-carbonyl)pyrrolidine-2-carboxamide]", "AC1.4": 7.61}
{"smiles": "N#CC1CN(S(=O)(=O)c2cccc(C(=O)N3CCC[C@@H]3C(=O)NC3CC(C(F)(F)F)C3)c2)C1", "note": "(stereo partly drawn) [Example 759, 1-((3-((3-cyano-1-azetidinyl)sulfonyl)phenyl)carbonyl)-N-(cis-3-(trifluoromethyl)cyclobutyl)-D-prolinamide,1-((3-((3-cyano-1-azetidinyl)sulfonyl)phenyl)carbonyl)-N-(trans-3-(trifluoromethyl)cyclobutyl)-D-prolinamide]", "AC1.4": 7.6347}
{"smiles": "O=C(NCc1ccc(C(F)(F)F)cc1)[C@H]1CCCN1C(=O)[C@H]1CCCN(S(=O)(=O)N2CC(F)(C(F)(F)F)C2)C1", "note": "[Example 760, 1-(((3S)-1-((3-fluoro-3-(trifluoromethyl)-1-azetidinyl)sulfonyl)-3-piperidinyl)carbonyl)-N-(4-(trifluoromethyl)benzyl)-D-prolinamide]", "AC1.4": 7.661}
{"smiles": "CS(=O)(=O)c1cc(C(=O)N2CCC[C@@H]2C(=O)NC(c2ccc(C(F)(F)F)cc2F)C2CC2)ccn1", "note": "(stereo partly drawn) [Example 761, (2R)-N-(cyclopropyl(2-fluoro-4-(trifluoromethyl)phenyl)methyl)-1-(2-(methylsulfonyl)isonicotinoyl)pyrrolidine-2-carboxamide]", "AC1.4": 7.696}
{"smiles": "CC(NC(=O)[C@H]1CCCN1C(=O)[C@H]1CCCN(S(=O)(=O)N2CC(C#N)C2)C1)c1cccc(F)c1F", "note": "(stereo partly drawn) [Example 763, (2R)-1-((S)-1-((3-cyanoazetidin-1-yl)sulfonyl)piperidine-3-carbonyl)-N-(1-(2,3-difluorophenyl)ethyl)pyrrolidine-2-carboxamide]", "AC1.4": 7.879}
{"smiles": "COC(=O)CNS(=O)(=O)c1cccc(C(=O)N2CCC[C@@H]2C(=O)NCc2ccc(C(F)(F)F)cc2)c1", "note": "[Example 764, methyl N-((3-(((2R)-2-((4-(trifluoromethyl)benzyl)carbamoyl)-1-pyrrolidinyl)carbonyl)phenyl)sulfonyl)glycinate]", "AC1.4": 7.912}
{"smiles": "Cc1ccc(C)c(CNC(=O)[C@H]2CCCN2C(=O)[C@H]2CCCN(S(=O)(=O)N3CC(C#N)C3)C2)c1", "note": "[Example 765, 1-(((3S)-1-((3-cyano-1-azetidinyl)sulfonyl)-3-piperidinyl)carbonyl)-N-(2,5-dimethylbenzyl)-D-prolinamide]", "AC1.4": 7.9325}
{"smiles": "O=C(NCc1ccc(C(F)(F)F)cc1)[C@H]1CCCN1C(=O)[C@H]1CCCN(S(=O)(=O)C2CCOC2)C1", "note": "(stereo partly drawn) [Example 766, (2R)-1-((3S)-1-((tetrahydrofuran-3-yl)sulfonyl)piperidine-3-carbonyl)-N-(4-(trifluoromethyl)benzyl)pyrrolidine-2-carboxamide]", "AC1.4": 7.933}
{"smiles": "CS(=O)(=O)c1cncc(C(=O)N2CC(F)(F)C2C(=O)N[C@@H](c2cc(F)c(C(F)(F)F)cc2F)C2CC2)c1", "note": "(stereo partly drawn) [Example 767, N-((R)-cyclopropyl(2,5-difluoro-4-(trifluoromethyl)phenyl)methyl)-3,3-difluoro-1-(5-(methylsulfonyl)nicotinoyl)azetidine-2-carboxamide]", "AC1.4": 8.015}
{"smiles": "N#CC1CN(S(=O)(=O)N2CCC[C@H](C(=O)N3CCC[C@@H]3C(=O)N[C@H](c3ccc(C(F)(F)F)cc3)C(F)(F)F)C2)C1", "note": "[Example 768, 1-(((3S)-1-((3-cyano-1-azetidinyl)sulfonyl)-3-piperidinyl)carbonyl)-N-((1R)-2,2,2-trifluoro-1-(4-(trifluoromethyl)phenyl)ethyl)-D-prolinamide]", "AC1.4": 8.033}
{"smiles": "CC1CCN1S(=O)(=O)N1CCC[C@H](C(=O)N2CCC[C@@H]2C(=O)NCc2ccc(C(F)(F)F)cc2)C1", "note": "(stereo partly drawn) [Example 769, (2R)-1-((3S)-1-((2-methylazetidin-1-yl)sulfonyl)piperidine-3-carbonyl)-N-(4-(trifluoromethyl)benzyl)pyrrolidine-2-carboxamide]", "AC1.4": 8.078}
{"smiles": "COc1ccc(Cl)cc1CNC(=O)[C@H]1CCCN1C(=O)[C@H]1CCCN(S(=O)(=O)N2CC(C#N)C2)C1", "note": "[Example 770, N-(5-chloro-2-methoxybenzyl)-1-(((3S)-1-((3-cyano-1-azetidinyl)sulfonyl)-3-piperidinyl)carbonyl)-D-prolinamide]", "AC1.4": 8.1255}
{"smiles": "O=C(NCc1ccc(C(F)(F)F)cc1)[C@H]1CCCN1C(=O)[C@H]1CCCN(S(=O)(=O)N2CC(c3cccc(C(F)(F)F)c3)C2)C1", "note": "[Example 771, N-(4-(trifluoromethyl)benzyl)-1-(((3S)-1-((3-(3-(trifluoromethyl)phenyl)-1-azetidinyl)sulfonyl)-3-piperidinyl)carbonyl)-D-prolinamide]", "AC1.4": 8.1415}
{"smiles": "CC[C@@H](NC(=O)[C@H]1CCCN1C(=O)c1cccc(S(C)(=O)=O)c1)c1ccc(Cl)c(F)c1", "note": "[Example 772, N-((1R)-1-(4-chloro-3-fluorophenyl)propyl)-1-(3-(methylsulfonyl)benzoyl)-D-prolinamide]", "AC1.4": 8.175}
{"smiles": "O=C(NCc1ccc(C(F)(F)F)cc1)[C@H]1CCCN1C(=O)[C@H]1CCCN(S(=O)(=O)N2CCC(F)(F)C2)C1", "note": "[Example 773, 1-(((3S)-1-((3,3-difluoro-1-pyrrolidinyl)sulfonyl)-3-piperidinyl)carbonyl)-N-(4-(trifluoromethyl)benzyl)-D-prolinamide]", "AC1.4": 8.21}
{"smiles": "Cc1nnc(CNS(=O)(=O)N2CCC[C@H](C(=O)N3CCC[C@@H]3C(=O)NCc3ccc(C(F)(F)F)cc3)C2)o1", "note": "[Example 774, 1-(((3S)-1-(((5-methyl-1,3,4-oxadiazol-2-yl)methyl)sulfamoyl)-3-piperidinyl)carbonyl)-N-(4-(trifluoromethyl)benzyl)-D-prolinamide]", "AC1.4": 8.3045}
{"smiles": "COC(=O)[C@H]1C[C@H](S(=O)(=O)N2CCC[C@H](C(=O)N3CCC[C@@H]3C(=O)NCc3ccc(C(F)(F)F)cc3)C2)C1", "note": "[Example 775, methyltrans-3-(((3S)-3-(((2R)-2-((4-(trifluoromethyl)benzyl)carbamoyl)-1-pyrrolidinyl)carbonyl)-1-piperidinyl)sulfonyl)cyclobutanecarboxylate]", "AC1.4": 8.31}
{"smiles": "COc1ccc([C@H](NC(=O)[C@H]2CCCN2C(=O)[C@H]2CCCN(S(=O)(=O)N3CC(C#N)C3)C2)C(F)(F)F)cc1F", "note": "[Example 776, 1-(((3S)-1-((3-cyano-1-azetidinyl)sulfonyl)-3-piperidinyl)carbonyl)-N-((1S)-2,2,2-trifluoro-1-(3-fluoro-4-methoxyphenyl)ethyl)-D-prolinamide]", "AC1.4": 8.3695}
{"smiles": "NS(=O)(=O)c1cc(C(=O)N2CCC[C@@H]2C(=O)N[C@@H](c2ccc(C(F)(F)F)cc2F)C2CC2)c(Cl)cc1F", "note": "[Example 777, 1-(2-chloro-4-fluoro-5-sulfamoylbenzoyl)-N-((R)-cyclopropyl(2-fluoro-4-(trifluoromethyl)phenyl)methyl)-D-prolinamide]", "AC1.4": 8.3805}
{"smiles": "CS(=O)(=O)c1cc(C(=O)N2[C@@H](C(=O)N[C@@H](c3cc(F)c(Cl)cc3F)C3CC3)C[C@@H]3C[C@@H]32)ccn1", "note": "[Example 779, (1S,3R,5S)-N-((R)-(4-chloro-2,5-difluorophenyl)(cyclopropyl)methyl)-2-((2-(methylsulfonyl)-4-pyridinyl)carbonyl)-2-azabicyclo[3.1.0]hexane-3-carboxamide]", "AC1.4": 8.423}
{"smiles": "O=C(NCc1ccc(C(F)(F)F)cc1)[C@H]1CCCN1C(=O)[C@H]1CCCN(S(=O)(=O)C2CCC2)C1", "note": "[Example 780, (R)-1-((S)-1-(cyclobutylsulfonyl)piperidine-3-carbonyl)-N-(4-(trifluoromethyl)benzyl)pyrrolidine-2-carboxamide]", "AC1.4": 8.4235}
{"smiles": "N#CC1CN(S(=O)(=O)N2CCC[C@H](C(=O)N3CCC[C@@H]3C(=O)NCc3cccc(OC(F)F)c3)C2)C1", "note": "[Example 781, 1-(((3S)-1-((3-cyano-1-azetidinyl)sulfonyl)-3-piperidinyl)carbonyl)-N-(3-(difluoromethoxy)benzyl)-D-prolinamide]", "AC1.4": 8.59}
{"smiles": "CC(=O)NC1CN(S(=O)(=O)N2CCC[C@H](C(=O)N3CCC[C@@H]3C(=O)NCc3ccc(C(F)(F)F)cc3)C2)C1", "note": "[Example 782, 1-(((3S)-1-((3-(acetylamino)-1-azetidinyl)sulfonyl)-3-piperidinyl)carbonyl)-N-(4-(trifluoromethyl)benzyl)-D-prolinamide]", "AC1.4": 8.6395}
{"smiles": "COc1ccc2c(c1)[C@H](NC(=O)[C@H]1CCCN1C(=O)[C@H]1CCCN(S(=O)(=O)N3CC(C#N)C3)C1)CCO2", "note": "[Example 783, 1-(((3S)-1-((3-cyano-1-azetidinyl)sulfonyl)-3-piperidinyl)carbonyl)-N-((4R)-6-methoxy-3,4-dihydro-2H-chromen-4-yl)-D-prolinamide]", "AC1.4": 8.7825}
{"smiles": "COc1cccc(C(=O)N2CCC[C@@H]2C(=O)N[C@@H](c2ccc(C(F)(F)F)cc2F)C2CC2)c1", "note": "[Example 784, N-((R)-cyclopropyl(2-fluoro-4-(trifluoromethyl)phenyl)methyl)-1-(3-methoxybenzoyl)-D-prolinamide]", "AC1.4": 8.852}
{"smiles": "C[C@@H](NC(=O)[C@H]1CCCN1C(=O)c1cccc(S(=O)(=O)N2CC(C#N)C2)c1)c1ccccc1", "note": "[Example 785, 1-((3-((3-cyano-1-azetidinyl)sulfonyl)phenyl)carbonyl)-N-((1R)-1-phenylethyl)-D-prolinamide]", "AC1.4": 8.8883}
{"smiles": "CCc1ccnc(C(=O)N2[C@@H](C(=O)N[C@@H](c3ccc(C(F)(F)F)cc3F)C3COC3)C[C@H]3C[C@H]32)c1", "note": "[Example 786, (1R,3R,5R)-2-((4-ethyl-2-pyridinyl)carbonyl)-N-((R)-(2-fluoro-4-(trifluoromethyl)phenyl)(3-oxetanyl)methyl)-2-azabicyclo[3.1.0]hexane-3-carboxamide]", "AC1.4": 8.9175}
